Data from patent publication US8940728B2 (priority 2012, dated 2015).
Read-outs that look alike come from different tables or passages of the source.

Legend:
a3b4 nAChRs [1] = target: T1, a3b4 nAChRs (Homo sapiens, UniProt P30926+P32297); assay: FLIPR Ca+2 flux assay, epibatidine-induced calcium response, SH-SYSY cells; assay type: cell-based
Experimental: (§1) The HEK293 (a3b4, a4b2 and a7) and SH-SYSY cell lines (a3b4) expressing nAChRs are used. Validated assays optimized with respect to sensitivity, dynamic range, signal intensity and stability for chemical probe validation and SAR refinement are used.
(§2) Nicotinic functional assays are performed using the Molecular Devices FLIPR® Calcium 5 Assay Kit. HEK293 cells overexpressing α3β4, α4β2 or α7 (50,000 cells per well in 100 μl growth media) and are plated in clear bottom black walled 96-well microplates and incubated for 24-48 hours at 37° C., 5% CO2 until a 80-90% confluent monolayer is formed. On the day of the assay, 100 μl of Calcium 5 Dye is added to each well. Following addition of dye, cells are incubated at 25° C. for 60 minutes. Following dye loading, 50 μl of a 5× solution of reference or test compound of appropriate concentration range (0.01-30 μM), prepared in 20 mM HEPES pH 7.4 in HBSS, is added to each well. Plates are then transferred to the Molecular Devices Flexstation® which transfers 50 μL of a 5× solution (500 nM) of epibatine to each well to initiate the Ca+2 flux. […] The RFU (relative fluorescence units) in the presence of the test or reference compounds is then expressed on the percent scale. The percent inhibition of epibatidine induced Ca^+2 flux is calculated as follows: % inhibition=100%−% RFU (relative fluorescence units). […]

[2] = target: T2, α3β4 nicotinic receptor subtype (Homo sapiens, UniProt P30926+P32297); assay: cell-based
T2 construct: SH-SYSY cells predominantly express the α3β4 nicotinic receptor subtype; endogenous in cells; host or cells: SH-SYSY (SH-SY5Y) cells
From the text: as §1

a3b4 nAChRs [3] = target: T1, a3b4 nAChRs; assay: Relative potency on epibatidine-induced calcium response at a3b4 nAChRs; assay type: cell-based
Experimental: as §1
Nicotinic functional assays are performed using the Molecular Devices FLIPR® Calcium 5 Assay Kit. HEK293 cells overexpressing α3β4, α4β2 or α7 (50,000 cells per well in 100 μl growth media) and are plated in clear bottom black walled 96-well microplates and incubated for 24-48 hours at 37° C., 5% CO2 until a 80-90% confluent monolayer is formed. On the day of the assay, 100 μl of Calcium 5 Dye is added to each well. Following addition of dye, cells are incubated at 25° C. for 60 minutes. Following dye loading, 50 μl of a 5× solution of reference or test compound of appropriate concentration range (0.01-30 μM), prepared in 20 mM HEPES pH 7.4 in HBSS, is added to each well. Plates are then transferred to the Molecular Devices Flexstation® which transfers 50 μL of a 5× solution (500 nM) of epibatine to each well to initiate the Ca+2 flux. Additional wells (in quadruplicate) are prepared with no added test or reference ligand for measurement of 100% flux. The RFU (relative fluorescence units) in the presence of the test or reference compounds is then expressed on the percent scale. The percent inhibition of epibatidine induced Ca^+2 flux is calculated as follows: % inhibition=100%−% RFU (relative fluorescence units). The IC50 values for reference and test compounds are obtained by fitting normalized RFU data using Graphpad Prism software.

[4] = CNS penetration across the brain blood barrier; details: in vivo
Experimental: Mice are dosed with compounds. Brain to blood ratios are determined by HPLC and LC/MS/MS analysis following oral administration of the test compounds in mice.

a3b4 nAChRs [5] = target: T1, a3b4 nAChRs; assay: FLIPR Ca+2 flux assay, epibatidine-induced calcium response, A3B4-HEK cells; assay type: cell-based
Experimental: as §1, §2

[6] = target: T3, kappa opioid receptor (kOR) (Homo sapiens, UniProt P41145); assay: Kappa opioid receptor radioligand binding
T3 construct: expressed in transfected cells; host or cells: CHO or HEK293
Experimental: (§3) Established radioligand binding methods are used to evaluate the ability of the compounds to block reuptake of serotonin and dopamine in membrane preparations of synaptosomes. Equilibrium binding affinity values is determined for each compound at opioid receptors (μ and κ subtypes) and biogenic amine transporters (DAT and SERT). Where possible, binding experiments utilize membranes derived from CHO or HEK293 cells engineered to overexpress the human form of the receptor or transporter of interest. Radiolabeling of opioid receptors, and biogenic amine transporters utilizes conventional radioligands, buffers and incubation conditions according to published assays.
(§4) Test compounds, reference compounds and the radioligand (Kd value) are added to binding buffer. Assays are run with test or reference compound over a range of concentration (0.0001-10 uM) in triplicate using a 96-well sample plate containing radioligands specific for the target receptor or transporter. […] Bound radioactivity is counted in a Microbeta scintillation counter. Total bound radioactivity is estimated from triplicate wells containing no test or reference compound, together with nonspecific binding and filter blanks. The average bound radioactivity in the presence of the test compounds is expressed % inhibition=100%−% radioactivity bound. […]

mu opioid receptor (mOR) = target: T4, mu opioid receptor (mOR) (Homo sapiens, UniProt P35372); assay: Mu opioid receptor radioligand binding
T4 construct: expressed in transfected cells; host or cells: CHO or HEK293
Experimental: as §3, §4

5-HT transporter = 5-HT transporter (Homo sapiens, UniProt P31645); assay: 5-HT transporter radioligand binding
Experimental: as §3, §4

[7] = Binding panel of over 50 receptors, transporters, ion channels, second messengers, growth factor receptors and enzymes; details: at physiologically relevant concentrations
From the text: The association between cigarette smoking and the presence and severity of suicidal behavior across major psychiatric disorders may be related to lower brain serotonin function in smokers with depression).

T2 sequence (P32297 32-505): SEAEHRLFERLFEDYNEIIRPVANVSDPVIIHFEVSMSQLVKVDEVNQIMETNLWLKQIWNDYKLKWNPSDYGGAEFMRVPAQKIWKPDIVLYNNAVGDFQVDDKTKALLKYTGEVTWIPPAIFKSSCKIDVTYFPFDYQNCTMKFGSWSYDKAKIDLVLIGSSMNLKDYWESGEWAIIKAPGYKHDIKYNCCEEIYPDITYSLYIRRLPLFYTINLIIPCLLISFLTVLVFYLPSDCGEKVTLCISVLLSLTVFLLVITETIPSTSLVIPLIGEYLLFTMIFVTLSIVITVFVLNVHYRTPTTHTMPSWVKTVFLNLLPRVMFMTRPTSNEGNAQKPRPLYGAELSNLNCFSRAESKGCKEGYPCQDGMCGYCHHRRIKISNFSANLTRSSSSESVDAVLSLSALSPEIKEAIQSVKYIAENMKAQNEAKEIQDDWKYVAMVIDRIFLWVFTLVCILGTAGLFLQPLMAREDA
T2 sequence (P30926 22-498): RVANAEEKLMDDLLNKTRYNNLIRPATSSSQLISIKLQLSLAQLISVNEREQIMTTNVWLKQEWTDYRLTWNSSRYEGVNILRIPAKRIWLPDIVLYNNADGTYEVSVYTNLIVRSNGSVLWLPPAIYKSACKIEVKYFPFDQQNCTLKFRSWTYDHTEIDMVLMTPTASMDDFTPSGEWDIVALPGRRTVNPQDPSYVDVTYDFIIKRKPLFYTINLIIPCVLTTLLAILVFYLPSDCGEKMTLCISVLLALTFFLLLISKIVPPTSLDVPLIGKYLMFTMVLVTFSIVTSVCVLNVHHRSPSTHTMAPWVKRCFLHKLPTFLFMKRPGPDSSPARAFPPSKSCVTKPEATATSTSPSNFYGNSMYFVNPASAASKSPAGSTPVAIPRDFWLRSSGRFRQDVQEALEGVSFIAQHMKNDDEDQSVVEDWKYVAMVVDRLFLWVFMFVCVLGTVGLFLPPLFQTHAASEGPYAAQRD
T1 sequence (P30926 22-498): as above
T1 sequence (P32297 32-505): as the sequence (P32297 32-505) above
T4 sequence (P35372 whole entry): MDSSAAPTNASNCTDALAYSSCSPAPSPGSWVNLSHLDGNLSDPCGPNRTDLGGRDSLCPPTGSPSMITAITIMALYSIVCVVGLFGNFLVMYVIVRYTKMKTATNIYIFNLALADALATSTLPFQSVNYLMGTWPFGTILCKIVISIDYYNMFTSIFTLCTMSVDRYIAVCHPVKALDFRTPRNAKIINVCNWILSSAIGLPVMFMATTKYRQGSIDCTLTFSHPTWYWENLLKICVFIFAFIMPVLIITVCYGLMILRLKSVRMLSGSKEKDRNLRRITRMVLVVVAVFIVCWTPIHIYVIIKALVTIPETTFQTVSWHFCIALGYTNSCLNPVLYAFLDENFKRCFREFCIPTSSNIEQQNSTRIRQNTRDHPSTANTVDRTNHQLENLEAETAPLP
T3 sequence (P41145 whole entry): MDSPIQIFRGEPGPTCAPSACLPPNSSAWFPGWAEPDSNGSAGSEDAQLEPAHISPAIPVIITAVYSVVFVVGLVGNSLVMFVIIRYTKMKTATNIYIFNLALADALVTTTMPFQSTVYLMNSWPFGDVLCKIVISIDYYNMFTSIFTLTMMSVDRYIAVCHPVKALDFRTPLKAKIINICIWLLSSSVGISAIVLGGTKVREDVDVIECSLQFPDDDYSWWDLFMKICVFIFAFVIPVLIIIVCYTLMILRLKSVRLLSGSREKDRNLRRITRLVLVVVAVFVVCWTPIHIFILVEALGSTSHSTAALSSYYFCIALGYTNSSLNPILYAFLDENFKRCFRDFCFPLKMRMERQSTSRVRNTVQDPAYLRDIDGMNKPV
Chain of 5-HT transporter (P31645 whole entry): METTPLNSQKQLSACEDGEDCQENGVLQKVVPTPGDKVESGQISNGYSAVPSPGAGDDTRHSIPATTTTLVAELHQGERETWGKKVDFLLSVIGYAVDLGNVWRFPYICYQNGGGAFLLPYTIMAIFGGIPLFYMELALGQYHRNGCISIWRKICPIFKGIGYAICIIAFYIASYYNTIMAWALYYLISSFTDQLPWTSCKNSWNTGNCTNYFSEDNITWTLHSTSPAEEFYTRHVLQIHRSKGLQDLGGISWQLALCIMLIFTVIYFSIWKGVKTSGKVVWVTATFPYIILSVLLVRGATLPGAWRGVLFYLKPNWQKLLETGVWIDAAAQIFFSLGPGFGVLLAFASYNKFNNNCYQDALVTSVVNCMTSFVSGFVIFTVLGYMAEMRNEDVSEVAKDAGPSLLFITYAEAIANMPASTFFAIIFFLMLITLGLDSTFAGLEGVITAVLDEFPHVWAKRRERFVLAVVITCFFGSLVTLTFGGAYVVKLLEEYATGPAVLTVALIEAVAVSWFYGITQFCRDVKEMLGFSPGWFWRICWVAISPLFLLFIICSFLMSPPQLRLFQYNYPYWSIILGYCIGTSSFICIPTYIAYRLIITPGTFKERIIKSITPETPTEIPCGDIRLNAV

Row | Compound | IC50 (a3b4 nAChRs [1]; SH-SYSY cells, read-out: IC50 (uM) SH-SYSY, inhibition of epibatidine-induced calcium response) [µM] | IC50 ([2]; Caliper, read-out: IC50 (uM) Caliper, inhibition of epibatidine-induced calcium response) [µM] | IC50 ([2]; SH-SYSY cells, preliminary studies by Caliper Life Sciences, read-out: IC50 as antagonist for epibatine induced Ca+2 flux) [µM] | IC50 (a3b4 nAChRs [3]; reference value for the ratios of Table 4, read-out: Potency of 18-MC at a3b4 nAChRs taken as reference) [µM] | Ratio from 18-MC (relative potency at a3b4 nAChRs) (a3b4 nAChRs [3]; relative to 18-MC = 1 (4 uM)) | Crossing of the BBB and concentration in brain [4] | Potency as inhibitor of epibatidine-induced calcium response compared with 18-MC and noribogaine (a3b4 nAChRs [3]; in words) | IC50 (a3b4 nAChRs [1]) [µM] | IC50 (a3b4 nAChRs [5]) [µM] | IC50 ([2]; IC50 (uM) Caliper, inhibition of epibatidine-induced calcium response, Caliper) [µM] | IC50 ([2]; IC50 as antagonist for epibatine induced Ca+2 flux, SH-SYSY cells, preliminary studies by Caliper Life Sciences) [µM] | Affinity at kappa opioid receptors [6] [µM] | Affinity at mu opioid receptors (mu opioid receptor (mOR)) [nM] | Affinity to the 5-HT transporter (5-HT transporter) [nM] | Targets bound in the panel [7]
1 | COCC[C@H]1CC2CN3CCc4c([nH]c5ccccc45)[C@](C(=O)OC)(C2)[C@H]13 [Compound 18-MC, 18-methoxycoronaridine] | 3.9 | 3.9 | 3.89 | 4 | 1 | cross the BBB and reach micromolar concentrations in brain |  |  |  |  |  |  |  |  | 
2 | Ibogaine |  |  |  |  |  |  | more potent inhibitors than 18-MC |  |  |  |  |  |  |  | 
3 | CC[C@H]1CC2C[C@H]3c4[nH]c5ccc(O)cc5c4CCN(C2)C13 [Noribogaine, 12-hydroxyibogamine] |  |  |  |  |  | cross the BBB and reach micromolar concentrations in brain |  | 0.3 | 18 | 1 | 0.462 | 1 | 900 | 50 | only bound to SERT, DAT, mu and kappa opioid receptors
